Experimental findings from US10017481B2, “Conformationally constrained, fully synthetic macrocyclic compounds” (POLYPHOR AG, priority 2012, dated 2018) are described below.

For data set [1], the target named is T1, human leukotriene B4 receptor (LTB4R) (Homo sapiens, UniProt Q15722).
T1 construct: host or cells: CHO mito-i-Photina cells
In words: Human LTB4 receptor cell-based assay (CHO mito-i-Photina, flash luminescence). To be noted: antagonist mode. The source says: 3. Human LTB4 Receptor Cell-Based Assay
CHO mito-i-Photina® cells (Axxam SpA) stably expressing the human leukotriene B4 receptor (LTB4R) were used for monitoring activation of the target LTB4R, a GPCR (Gαq), by measuring the flash luminescence of Ca^2+ sensitive photoprotein as reporter system with FLIPR^TETRA screening instrumentation (Molecular Devices) upgraded with an ICCD Camera (MDC). For data quality check and data analysis a Genedata Screener 10.0.3 was used, and for curve fitting of reference agonist and antagonist GraphPad Prism Software.
The reference agonist LTB4 and antagonist U-75302 were purchased from reputable commercial vendors and prepared according to each ligand's specifications. All handling of ligands were done to ensure proper control throughout the experiments.
The steps of the implemented workflow and data analysis are mainly as follows:
mito-1-Photina cells are seeded (10000 c/w in 384 MTP; in complete medium 25 μL/well) for 24 hours, removed from the incubator, equilibrated at room temperature for 1 h, freed from the growth medium, loaded with 30 μL/well of Tyrode's buffer containing 10 μM coelenterazine, and incubated for 3 hours at rt.
All compounds were tested at 10 μM with triplicate data points.
After incubation, the volume in all the wells is flattened to 20 μL by aspiration with CyBi®-Vario pipettor. The First Injection (10 μL of test compounds or reference antagonist U-75302 in Tyrode's buffer+DMSO 0.5%) is performed by the FLIPR^TETRA and the kinetic response is monitored over a period of 120 seconds. Incubation at rt for 10 min. is followed by the Second Injection (15 μL of LTB4 at EC80 in Tyrode's buffer) and monitoring of the kinetic response over a period of 120 seconds.
The possible kinetic response is divided into two distinct phases: Monitoring the kinetic response after the First Injection is indicated as Compound Addition (CA) and measures the agonistic activity of compounds; monitoring the kinetic response after the Second Injection is indicated as Target Activation (TA) and measures the antagonistic activity of a compound.
The activity determination (IC50 determination) experiment is performed using LTB4 as agonist (100 nM corresponding to EC80). Selected compound are tested in 8 doses intraplate dose response with quadruplicate data points.

The nature of data set [2]: Plasma stability assay, human plasma. Type of data set: in vitro ADME. The gist of the method: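 Compounds at 10 μM were incubated at 37 °C in triplicate in sodium citrate-stabilized plasma (human, or pooled mixed-gender CD-1 mouse). Samples taken at 0–240 min were acetonitrile-quenched and analyzed by HPLC/MS/MS. Remaining peak area as % of t0 gave endpoint stability (%) and half-life (min).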

Data set [3] is described as follows: Metabolic stability assay, human liver microsomes. It is filed as in vitro ADME. To be noted: human microsomes, 10 μM, 37° C. The procedure, abridged:
(§1)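 Pooled human (50 donors, mixed gender) or CD-1 mouse microsomes at 1 mg/mL protein, 10 μM compound, 100 mM potassium phosphate with NADPH-regenerating system, 37 °C in duplicate. Samples at 0, 5, 10, 20, 60 min analysed by HPLC/MS/MS; turnover as % of 0-min value and T½ (min) calculated.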

A short description of data set [4]: Metabolic stability assay, CD-1 mouse microsomes. It is filed as in vitro ADME. The settings on record: CD-1 mouse microsomes, 10 μM, 37° C. The procedure, abridged:
as §1

Data set [5] deals with T2, Oxytocin receptor (OT receptor) (Homo sapiens, UniProt P30559).
T2 construct: expressed in transfected cells; host or cells: Ca2+ optimized hematopoietic cell lines (rat)
T2 sequence (P30559 1-389): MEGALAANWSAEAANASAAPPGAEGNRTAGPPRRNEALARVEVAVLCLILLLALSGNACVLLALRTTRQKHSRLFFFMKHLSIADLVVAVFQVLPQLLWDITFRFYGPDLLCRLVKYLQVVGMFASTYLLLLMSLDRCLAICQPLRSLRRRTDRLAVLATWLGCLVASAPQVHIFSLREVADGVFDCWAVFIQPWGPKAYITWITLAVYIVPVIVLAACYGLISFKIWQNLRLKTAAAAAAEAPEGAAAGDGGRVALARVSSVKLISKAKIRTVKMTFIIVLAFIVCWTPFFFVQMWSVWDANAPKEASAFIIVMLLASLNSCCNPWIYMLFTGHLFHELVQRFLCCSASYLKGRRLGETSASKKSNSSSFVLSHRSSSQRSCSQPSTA
In words: Ca2+ flux (FLIPR) assay, OT receptor, agonist/antagonist mode. The settings on record: antagonist mode. Type of data set: cell-based. On the procedure:
Biological and Pharmacological Methods 1. Ca^2+ Flux Assays for the GPCRs Oxytocin Receptor (OT Receptor), Thyrotropin-Releasing Hormone Receptor (TRH Receptor) and Bombesin Receptor Subtype 3 (BB3 Receptor)
Assays were performed on a FLIPR^TETRA fluorometric imaging plate reader (Molecular Devices) with ScreenWorks Version 2 (Molecular Devices) as device operating and data analysis software.
Dose dependent agonist and antagonist activities were determined. Percentage activation and percentage inhibition values were determined.
Percentage activation was determined upon initial addition of the sample compounds followed by 10 minutes' incubation at 25° C. Following compound incubation, reference agonists were added at EC80 to determine percentage inhibition.
Reference agonists were purchased from reputable commercial vendors and prepared according to each ligand's specifications. All handling of ligands were done to ensure proper control throughout the experiments.
Example compounds were weighed on a Microbalance (Mettler MX5) and dissolved in 100% DMSO to a final concentration of 2.5 mM and subsequently diluted into the assay buffer.
The assay buffer was a supplemented HBSS (Hank's Balanced Salt Solution). HBSS was supplemented with 20 mM HEPES (4-(2-hydroxyethyl)-piperazin-1-ethansulfonic acid) and 2.5 mM Probenecid (Sigma P8761).
GPCR assays were performed using Ca^2+ optimized hematopoietic cell lines (rat) with cultures never exceeding 90% confluency. Cells were harvested and seeded (from cultures at less than 90% confluency) at 50000 cells/well for a 96-well plate (12500 cells/well for 384). After seeding, the assay plates were incubated for 45 minutes at room temperature. After room temperature incubation, the assay plates were incubated at 37° C. 5% CO2 for 24 hours prior to assaying.
All GPCR assays were performed using Fluo-8 Ca^2+ dye.
Ca^2+ dye was prepared at 1× dye concentration in GPCR assay buffer. After 24 hours of incubation, cells were washed with GPCR assay buffer, and then Ca^2+-dye (100 μL/well) was added.
The plates were incubated for 90 minutes at 30° C. 5% CO2 prior to FLIPR assay.
Compound plates were prepared to add 50 μL/well during the agonist assay mode. During the FLIPR assay, 50 μL/well from the compound plate was diluted 3-fold into the existing 100 μL/well from the dye loading step. Therefore all compounds were prepared as 3× the final concentration desired in the assay.
After completion of the first single addition assay run, assay plate was removed from the FLIPR Tetra and placed at 25° C. for 7 minutes before antagonist assay.
Using the EC80 values determined during the agonist assay, all pre-incubated sample compound and reference antagonist (if applicable) wells were stimulated at the EC80 of the reference agonist. As reference ligands for these assays their obvious natural ligands oxytocin (OT), thyrotropin-releasing hormone (TRH) and bombesin (6-14) [BN(6-14)] were used.
After the addition of the reference agonist fluorescence was monitored for 180 sec using FLIPR Tetra.
From the FLIPR data, with negative control correction enabled, the maximum statistic for each well was exported and percentage activation relative to Emax control was calculated.

For data set [6], the system named is S. pneumoniae DSM 20566 11A11, 3313A6, 704CG4B21, 82BERG72. In words: Antimicrobial assay, broth microdilution MIC, S. pneumoniae strains. Type of data set: cell-based. To be noted: Streptococcus pneumoniae, DSM20566; strain DSM 20566 (Table 32.7); read-out: MIC S. pneumoniae DSM 20566. On the procedure: (§2) The antimicrobial activities of the compounds were determined in 96-well plates (Greiner, polystyrene) by the standard NCCLS broth microdilution method (National Committee for Clinical Laboratory Standards 1993. Methods for dilution antimicrobial susceptibility tests for bacteria that grow aerobically, 3rd ed. Approved standard M7-A6. National Committee for Clinical laboratory standards, Wayne, Pa.) with slight modifications. Inocula of the microorganisms were diluted into Mueller-Hinton II (MH, cation adjusted) broth+0.002% P-80 and compared with a 0.5 McFarland standard to give appr. 10^6 colony forming units (CFU)/mL. Aliquots (50 μl) of inoculate were added to 50 μl of MH broth+0.002% P-80 containing the compounds in serial two-fold dilutions. The following microorganisms were used to determine antibiotic selectivity of the compounds: S. pneumoniae DSM 20566 11A11, 3313A6, 704CG4B21, 82BERG72; S. aureus ATCC 29213, ATCC 25923, DSM 11729, DSM 46320, S. aureus 39. Antimicrobial activities of the compounds were expressed as the minimal inhibitory concentration (MIC) in μg/mL at which no visible growth was observed after 18-20 hours of incubation at 36° C.

Data set [7] concerns S. aureus ATCC 29213, ATCC 25923, DSM 11729, DSM 46320, S. aureus 39. In words: Antimicrobial assay, broth microdilution MIC, S. aureus strains. Type of data set: cell-based. To be noted: Staphylococcus aureus. The method, then:
as §2

Structures are written as SMILES. ≈ marks a conversion by molar mass, not a printed value. Read-outs that look alike come from different tables or passages of the source. Bounds are passed on as bounds.

T1 sequence (Q15722 whole entry): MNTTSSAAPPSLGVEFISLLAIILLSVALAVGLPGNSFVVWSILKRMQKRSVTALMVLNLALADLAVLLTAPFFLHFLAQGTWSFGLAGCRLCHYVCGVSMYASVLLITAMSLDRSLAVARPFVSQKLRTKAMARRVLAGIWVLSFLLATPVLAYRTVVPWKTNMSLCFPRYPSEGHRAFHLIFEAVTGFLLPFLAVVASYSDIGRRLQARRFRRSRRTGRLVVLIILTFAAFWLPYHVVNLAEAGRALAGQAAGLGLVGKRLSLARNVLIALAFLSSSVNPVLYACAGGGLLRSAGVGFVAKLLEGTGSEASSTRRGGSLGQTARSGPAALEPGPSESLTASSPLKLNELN

In data set [1], `O=C(N[C@@H]1CCNC(=O)c2ccccc2-c2cccc(c2)OC[C@@H]2C[C@H](NC(=O)Oc3ccccc3)CN2C1=O)OCc1ccccc1` [Ex. 14] gave an IC50 of 39.4 µM and an inhibition at 10 µM of 46%.
As to `COc1ccc2c(c1)-c1cccc(c1)C(=O)N(C)[C@H](C(=O)NCc1cccnc1)CCC(=O)N[C@H](C)CO2` [Ex. 50, (10R,15S)-4-methoxy-10,16-dimethyl-12,17-dioxo-N-(3-pyridinylmethyl)-8-oxa-11,16-diazatricyclo[16.3.1.0^2,7]docosa-1(22),2,4,6,18,20-hexaene-15-carboxamide], half-maximal inhibition in data set [1] (IC50) required 1.97 µM. Moreover, at 10 µM the inhibition in data set [1] was 100%. In addition, the “Plasma Stability 240 min hum [% remain.]” value in data set [2] (human plasma, 240 min, 10 μM, 37° C.) was 100 % remain. The half-life at 10 μM in data set [2] (human, plasma) is more than 240 min; in data set [3] (both sexes, liver microsomes, 1 mg/ml protein, read-out: Metabolic Stability T ½ [min] hum), more than 60 min; in data set [4] (both sexes, 1 mg/ml protein, read-out: Metabolic Stability T ½ [min] mouse/(rat)), 40 min. The “Metabolic Stability 60 min hum [% remain.]” value in data set [3] (60 min) is given as 53 % remain. Further, in data set [4] (60 min), the “Metabolic Stability 60 min mouse/(rat) [% remain.]” value is listed as 34 % remain.
On to `CN1CCNC(=O)c2cncc(c2)-c2cccc(c2)OC[C@@H]2C[C@@H](NC(=O)OC(C)(C)C)CN2C(=O)C1` [Ex. 94, tert-butyl N-[(9S,11R)-16-methyl-14,20-dioxo-7-oxa-13,16,19,23-tetraazatetracyclo[19.3.1.1^2,6.0^9,13]hexacosa-1(25),2(26),3,5,21,23-hexaen-11-yl]carbamate], for which, in data set [5], the IC50 worked out at 3 µM. Further, the inhibition at 10 µM in data set [5] (10 μM) worked out at 58%. In addition, the MIC was more than 16 µg/mL in data set [6]; 8 µg/mL (≈ 15.7 µM) in data set [7] (strain ATCC 25923, read-out: MIC S. aureus ATCC 25923); 4 µg/mL (≈ 7.85 µM) in data set [7] (strain ATCC 29213, read-out: MIC S. aureus ATCC 29213); 4 µg/mL (≈ 7.85 µM) in data set [7] (strain DSM 11729, read-out: MIC S. aureus DSM 11729); 8 µg/mL (≈ 15.7 µM) in data set [7] (strain DSM 46320, read-out: MIC S. aureus DSM 46320); 8 µg/mL (≈ 15.7 µM) in data set [7] (strain S. aureus 39, read-out: MIC S. aureus 39).
As for `C[C@@H]1COc2cccc(c2)-c2ccccc2SCCCC[C@H](N)C(=O)N1` [Ex. 116, (13S,16R)-13-amino-16-methyl-18-oxa-8-thia-15-azatricyclo[17.3.1.0^2,7]tricosa-1(23),2,4,6,19,21-hexaen-14-one], in data set [1], half-maximal inhibition (IC50) required 15.4 µM and the inhibition at 10 µM is 49%.
In data set [1], `C[C@@H]1COc2cccc(c2)-c2ccccc2SCCCC[C@H](NC(=O)CN2CCCC2)C(=O)N1` [Ex. 119, N-[(13S,16R)-16-methyl-14-oxo-18-oxa-8-thia-15-azatricyclo[17.3.1.0^2,7]tricosa-1(23),2,4,6,19,21-hexaen-13-yl]-2-(1-pyrrolidinyl)acetamide] yielded an IC50 of 14.2 µM and an inhibition at 10 µM of 47%.
In data set [1], `C[C@@H]1COc2ccccc2-c2cncc(c2)SCCCC[C@H](N)C(=O)N1` [Ex. 144, (10R,13S)-13-amino-10-methyl-8-oxa-18-thia-11,21-diazatricyclo[17.3.1.0^2,7]tricosa-1(23),2,4,6,19,21-hexaen-12-one] had an IC50 of 40.9 µM and an inhibition at 10 µM of 41%.
